# Experimental data as given in PMC4964461, “Synthesis and Evaluation of Tricarbonyl ^99mTc-Labeled 2-(4-Chloro)phenyl-imidazo[1,2-a]pyridine Analogs as Novel SPECT Imaging Radiotracer for TSPO-Rich Cancer” (International Journal of Molecular Sciences, 2016).
# Target: T1, 18-kDa translocator protein (TSPO) (Rattus norvegicus, UniProt P16257)
# T1 construct: native TSPO in rat C6 glioma cell membranes
# Experiment: [3H]-PK […] radioligand displacement on C6 glioma membrane extracts
# Format: binding
# Conditions: read-out: Ki (nM) for TSPO
row,SMILES,Ki [nM]
1,"CCCN(CCC)C(=O)Cc1c(-c2ccc(Cl)cc2)nc2c(NC(=O)C[N+]34Cc5cccc[n+]5[Re-5]3([C]#[O+])([C]#[O+])([C]#[O+])[n+]3ccccc3C4)cccn12 (centres unmarked) [compound 2, Re-CB256]",159 ± 8.7
2,CCCN(CCC)C(=O)Cc1c(-c2ccc(Cl)cc2)nc2c(NC(=O)CN(Cc3ccccn3)Cc3ccccn3)cccn12 [compound 3],148 ± 11.3
